Data taken from US10772886B2, “CXCR-2 inhibitors for treating crystal arthropathy disorders” (ARDEA BIOSCIENCES, INC., priority 2016, dated 2020).
Read-outs that look alike come from different tables or passages of the source.

Columns and labels:
neutrophils = assay: Cell migration (chemotaxis) assay, neutrophil counts; type: cell-based; settings: 10 μM; MSU-conditioned media; FIG. 1A
PBMCs = assay: Cell migration (chemotaxis) assay, PBMC counts; type: cell-based; settings: 10 μM; MSU crystal conditioned media; FIG. 1B
Description: Primary blood monocytes (PMBC) were obtained from the lymphocyte layer (buffy coat) of peripheral blood from normal donors. Each leukopack (Interstate Blood Bank) was diluted with an equal volume of PBS, and 35 mL of blood preparation was over-laid onto 15 mL of Ficoll-Paque™ PLUS (GE Healthcare Bio-Sciences). Tubes were centrifuged at 700×g without breaks for 30 minutes at room temperature. The buffy coat interface was removed, added to PBS (40 mL), and centrifuged at 300×g. Any remaining erythrocytes in the cell pellet were lysed by incubating cells in red blood cell lysis buffer (10 mL, R&D Systems) for 10 minutes at room temperature. Following lysis, PBS (40 mL) was added and the cells centrifuged for 5 minutes at 200×g. The pellet was washed once with PBS and re-suspended in complete RPMI and seeded onto a BD Falcon™ 100 mm tissue culture dish (Cat. No. 353003). After one hour, the media was aspirated and the adherent cells (predominantly monocytes) were harvested using a cell scraper and used in chemotaxis assays. Chemotaxis was assayed in 48-well plates with BD Falcon FluoroBlok Multiwell inserts with 3 μm pores (Cat. No. 351161 or 351162) coated with hFN. […] Fluorescence emitted from cells that had migrated to the bottom surface of the insert was measured at various time points. Cells labeled with Calcein AM were read at 485/530 nm (Ex/Em) wavelength. […]

[1] = cited from earlier work
CXCR-2 = target: T1, CXCR-2 (Homo sapiens, UniProt P25025); settings: in vitro; cited from earlier work
T1 sequence (P25025 1-360): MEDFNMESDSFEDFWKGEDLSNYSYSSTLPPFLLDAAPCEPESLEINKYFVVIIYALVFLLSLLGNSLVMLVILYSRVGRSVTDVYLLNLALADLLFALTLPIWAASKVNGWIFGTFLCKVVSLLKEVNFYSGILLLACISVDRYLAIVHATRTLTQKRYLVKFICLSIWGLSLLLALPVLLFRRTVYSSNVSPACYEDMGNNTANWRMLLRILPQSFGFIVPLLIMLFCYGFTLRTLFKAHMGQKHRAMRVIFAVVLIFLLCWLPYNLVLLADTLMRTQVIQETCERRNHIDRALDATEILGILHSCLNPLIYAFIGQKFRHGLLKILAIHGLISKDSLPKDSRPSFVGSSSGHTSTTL

[2] = rat; cited from earlier work
[3] = dog; cited from earlier work
[4] = test system: rat air pouch model of crystal-induced arthropathy (MSU); assay: Rat air pouch model, Example 9 (Compound 4 in combination with colchicine); type: in vivo
Description: Sodium hydroxide (40 g, Fisher Scientific) was dissolved in de-ionized water (100 mL, dH2O) to provide a 10N solution. […] The resulting clear solution was cooled to 4-8° C., resulting in the formation of crystals, which were isolated by filtration, washed three times with de-ionized wa[…]) and dried at 37° C. The dried mono sodium urate crystals were sifted into an air-tight container for storage. […] Methylcellulose (0.4 g, Sigma) was dissolved in de-ionized water (100 mL) to provide a 0.4% solution used as vehicle. […] Test compounds were suspended in vehicle to provide the desired concentrations, and diluted accordingly. […] The animals were in apparent good health with no clinical signs of disease or distress. The rats were placed in quarantine with daily inspections, ear notched for identification purposes and shaved at the nape of the neck. The rats were anesthetized (isoflurane), and the nape of the neck was cleansed with 70% isopropanol (Butler Animal Health Supply) followed by povidone-iodine solution (Ricca Chemical Co.). Sterile air (30 mL, 0.2 μm, Millipore) was injected subcutaneously using a 23 G×11⁄2 inch needle fixed to a 30 mL syringe. The rats were returned to routine housing with no adverse reactions observed. The rats were anesthetized (isoflurane), and the nape of the neck was cleansed with 70% isopropanol (Butler Animal Health Supply) followed by povidone-iodine solution (Ricca Chemical Co.). Sterile air (15 mL, 0.11 μm, Millipore) was injected subcutaneously using a 23 G×11⁄2 inch needle fixed to a 20 mL syringe. The rats were returned to routine housing with no adverse reactions observed. The rats were weighed and sorted into treatment groups based on average body weight. As appropriate, the rats were dosed orally with test compound or vehicle (saline alone). […] Thirty minutes after SC injection or two hours after PO dosing, MSU (15 mL) was injected into the air pouch using an 18 G×2 inch needle fitted to a 20 mL syringe. Control group was injected with 15 mL sterile saline (vehicle). The injection sites were closed (collodion, Macron) and the rats returned to their cages with no adverse effects observed. Four hours after MSU/saline injection, the rats were anesthetized and heparinized saline (5 mL, 10 U/mL) was injected into the air pouch. […] An aliquot of the exudate was transferred to green Eppendorf tubes for total white blood cell (WBC) measurement. After allowing the MSU crystals to settle out for ten minutes, an aliquot of the exudate was transferred to heparinized microtainer tubes (Becton Dickinson) for differential white blood cell counts. The remainder of the exudate was centrifuged and an aliquot of the supernatants was dispensed to labeled clear Eppendorf tubes and stored at -80° C. The rats were exsanguinated into pre-chilled serum separator tubes, processed to serum, and 0.5 mL aliquot was stored at -80° C. in labeled Eppendorf tubes. […] [table]

[5] = in vivo; cited from earlier work
[6] = cited from earlier work; remark: listed apart in the source
[7] = 10 umol/kg PO + Colchicine 0.3 mpk SC, Group 10

In the case of `CC[C@@H](Nc1c(Nc2cccc(C(=O)N(C)C)c2O)c(=O)c1=O)c1ccc(C)o1` [Compound 2, (R)-2-hydroxy-N,N-dimethyl-3-((2-((1-(5-methylfuran-2-yl)propyl)amino)-3,4-dioxocyclobut-1-en-1-yl)amino)benzamide], the “inhibition of migration in neutrophils” value (neutrophils) is reported as “significant inhibition of migration” and the “inhibition in migration in PBMCs” value (PBMCs) is reported as “significant inhibition in migration”.

In the case of `C[C@@H](Oc1cc(NS(=O)(=O)N2CCC2)nc(SCc2cccc(F)c2F)n1)[C@@H](O)CO` [Compound 3, N-(2-((2,3-difluorobenzyl)thio)-6-(((2R,3S)-3,4-dihydroxybutan-2-yl)oxy)pyrimidin-4-yl)azetidine-1-sulfonamide], the solubility properties [1] is listed as “good”, the potency (CXCR-2) is listed as “high” and the bioavailability [2] is listed as 49%. For the same compound, the half-life [3] was “long”.

With `CC1CN(S(=O)(=O)Nc2cc(O[C@H](C)[C@@H](O)CO)nc(SCc3ccc(F)cc3)n2)C1` [Compound 4, N-(6-(((2R,3S)-3,4-dihydroxybutan-2-yl)oxy)-2-((4-fluorobenzyl)thio)pyrimidin-4-yl)-3-methylazetidine-1-sulfonamide] the “Avg Exudate Vol” value [4, 7] was 7.8 mL, the “Avg Tot WBC” value [4, 7] was 20 ×10^6 and the Neutrophils [4, 7] was 6.4 ×10^6. For the same compound, the “Avg Exudate Vol” value ([4]; 10.0 umol/kg PO, Group 6) was 12.5 mL, the “Avg Tot WBC” value ([4]; 10.0 umol/kg PO, Group 6) was 160 ×10^6 and the Neutrophils ([4]; 10.0 umol/kg PO, Group 6) was 102.1 ×10^6. The “Avg Exudate Vol” value ([4]; 30.0 umol/kg PO, Group 7) was 6.7 mL, the “Avg Tot WBC” value ([4]; 30.0 umol/kg PO, Group 7) was 28.7 ×10^6 and the Neutrophils ([4]; 30.0 umol/kg PO, Group 7) was 14 ×10^6. For the same compound, the “Avg Exudate Vol” value ([4]; 100 umol/kg PO, Group 8) was 6 mL, the “Avg Tot WBC” value ([4]; 100 umol/kg PO, Group 8) was 12 ×10^6 and the Neutrophils ([4]; 100 umol/kg PO, Group 8) was 3.8 ×10^6. The “Avg Exudate Vol” value ([4]; 300 umol/kg PO, Group 9) was 5.2 mL, the “Avg Tot WBC” value ([4]; 300 umol/kg PO, Group 9) was 8.1 ×10^6 and the Neutrophils ([4]; 300 umol/kg PO, Group 9) was 4.3 ×10^6.

With `COc1cc2c(c(OC)c1OC)-c1ccc(OC)c(=O)cc1[C@@H](NC(C)=O)CC2` [Colchicine, COLCHICINE, reference compound] the “Avg Exudate Vol” value ([4]; 0.3 mpk SC, Group 3) was 12.4 mL, the “Avg Tot WBC” value ([4]; 0.3 mpk SC, Group 3) was 120 ×10^6 and the Neutrophils ([4]; 0.3 mpk SC, Group 3) was 101.9 ×10^6. For the same compound, the “Avg Exudate Vol” value ([4]; 0.5 mpk SC, Group 4) was 8.8 mL, the “Avg Tot WBC” value ([4]; 0.5 mpk SC, Group 4) was 58 ×10^6 and the Neutrophils ([4]; 0.5 mpk SC, Group 4) was 42.7 ×10^6. The “Avg Exudate Vol” value ([4]; 1.0 mpk SC, Group 5) was 5.6 mL, the “Avg Tot WBC” value ([4]; 1.0 mpk SC, Group 5) was 16 ×10^6 and the Neutrophils ([4]; 1.0 mpk SC, Group 5) was 9.8 ×10^6. For the same compound, the “eliminated unchanged in the urine” value [5] was 10-20%, the gastrointestinal side effects ([6]; lower dose regimen: 1.2 mg at onset of acute gout attack, then 0.6 mg after one hour) was 24% and the gastrointestinal side effects ([6]; standard dose regimen: 1.2 mg at onset of acute gout attack, then 0.6 mg every hour for 6 hours) was 73%. For the same compound, the “Severe diarrhea, % of patients” value ([6]; standard dose regimen) was 19% and the “vomiting, % of patients” value ([6]; standard dose regimen) was 15%.
